# Measurements taken from US12338256B2, “Aza-tetracyclic oxazepine compounds and uses thereof” (Genentech, Inc., priority 2022, dated 2025).
# Tests used:
# [1] = tested on: H1975 (KRAS wild type human lung adenocarcinoma cell line); experiment: KRAS 3D-Cell Proliferation Assay, H1975 (Example 503); assay type: cell-based; details: Homo sapiens, NCI-H1975, 168 h, H1975 3D culture, 7 days, CellTiter-Glo 3D; read-out: Prolif H1975 3D ATP IC50
# Description: (§1) Example 503: KRAS 3D-Cell Proliferation Assays. Cellular potencies of compounds are assessed by evaluating inhibition of proliferation in 3D cultures of homozygous mutant KRAS G12D human pancreatic cell lines (AsPC-1 and HPAC) as compared to a KRAS wild type human lung adenocarcinoma cell line (PC-9 and/or H1975). Cells are seeded into 384-well black round-bottom, ultra-low attachment assay plates in 50 uL cell growth medium (RPMI-1640 with 10% fetal bovine serum and 2 mM L-glutamine). After overnight incubation at 37° C. and 5% CO2, compounds solubilized in DMSO are added as dilution series to the wells in a total volume of 150 nL (0.3% DMSO final). The cells are incubated for 7 days at 37° C. and 5% CO2. Cell proliferation is quantitated by addition of 40 uL/well of CellTiter-GloÒ 3D (Promega), and the well contents are mixed 20× at high speed using liquid handling automation workstation (Bravo with 384-well head) and centrifuged at 1500 rpm for 2 minutes to eliminate bubbles. This reagent in combination with mechanical disruption releases the cellular ATP to promote activity in a luciferase-based enzyme/substrate chemiluminescent detection system. After a 30-minute incubation under ambient conditions with shaking and an additional 10 minutes without shaking, the luminescence is read on a plate reader (e.g., EnVision [PerkinElmer]). The results are normalized to percent inhibition based on the following control samples: DMSO (0% inhibition) and 1 μM staurosporine (100% inhibition). The normalized luminescence results are plotted against compound concentration, and the data are fit to a 4-parameter Hill equation to determine the IC50 values.
# [2] = tested on: HPAC (homozygous mutant KRAS G12D human pancreatic cell line); experiment: KRAS 3D-Cell Proliferation Assay, HPAC (Example 503); assay type: cell-based; details: Homo sapiens, HPAC, 168 h, HPAC 3D culture, 7 days, CellTiter-Glo 3D; read-out: Prolif HPAC 3D ATP IC50
# Description: as §1
Compound,IC50 [1] [nM],IC50 [2] [nM]
"Cc1nc(N)cc(-c2nc3c4c(nc(OCC5(CN6CCCC67CCOC7)CC5)nc4c2F)N2C[C@H]4CC[C@H](N4)[C@H]2[C@H](C)O3)c1C(F)(F)F (stereo partly drawn) [Compound 282, 4-((5S,5aS,6S,9R)-12-((1-((7-oxa-1-azaspiro[4.4]nonan-1-yl)methyl)cyclopropyl)methoxy)-1-fluoro-5-methyl-5a,6,7,8,9,10-hexahydro-5H-4-oxa-3,10a,11,13,14-pentaaza[6,9]methanonaphtho[1,8-ab]heptalene-2-yl)-6-methyl-5-(trifluoromethyl)pyridin-2-amine]",2450,3.96
Cc1c(F)c(N)cc(-c2nc3c4c(nc(OC[C@@H](F)CN5CC6(COC6)C5)nc4c2F)N2C[C@H]4CC[C@H](N4)[C@H]2[C@H](C)O3)c1C(F)(F)F [Compound 145],5120,68.7
"Cc1c(F)c(N)cc(-c2nc3c4c(nc(OCC5(CN6CC6(C)C)CC5)nc4c2F)N2C[C@H]4CC[C@H](N4)[C@H]2[C@H](C)O3)c1C(F)(F)F (stereo partly drawn) [Compound 259, 5-((5S,5aS,6S,9R)-12-((1-((2,2-Dimethylaziridin-1-yl)methyl)cyclopropyl)methoxy)-1-fluoro-5-methyl-5a,6,7,8,9,10-hexahydro-5H-4-oxa-3,10a,11,13,14-pentaaza-6,9-methanonaphtho[1,8-ab]heptalen-2-yl)-2-fluoro-3-methyl-4-(trifluoromethyl)aniline]",1970,12.3
"Cc1c(F)c(N)cc(-c2nc3c4c(nc(OC[C@H]5[C@H](C#N)CCN5C)nc4c2F)N2C[C@H]4CC[C@H](N4)[C@H]2[C@H](C)O3)c1C(F)(F)F [Compound 161, (2R,3R)-2-((((5S,5aS,6S,9R)-2-(5-Amino-4° fluoro-3-methyl-2-(trifluoromethyl)°henyl)-1-fluoro-5-methyl-5a,6,7,8,9,10-hexahydro-5H-4-oxa-3,10a,11,13,14-pentaaza-6,9-methanonaphtho[1,8-ab]heptalen-12-yl)oxy)methyl)-1-methylpyrrolidine-3-carbonitrile]",13000,68.9
"C[C@@H]1Oc2nc(-c3cc(N)cc4c3CC4)c(F)c3nc(OC[C@@]45CCCN4C[C@H](F)C5)nc(c23)N2C[C@H]3CC[C@H](N3)[C@@H]12 [Compound 201, 5-((5S,5aS,6S,9R)-1-Fluoro-12-(((2R,7aS)-2-fluorotetrahydro-1H-pyrrolizin-7a(5H)-yl)methoxy)-5-methyl-5a,6,7,8,9,10-hexahydro-5H-4-oxa-3,10a,11,13,14-pentaaza-6,9-methanonaphtho[1,8-ab]heptalen-2-yl)bicyclo[4.2.0]octa-1(6),2,4-trien-3-amine]",10600,407
"Cc1c(F)ccc(-c2nc3c4c(nc(OC[C@@]56CCCN5C[C@H](F)C6)nc4c2F)N2C[C@H]4CC[C@H](N4)[C@H]2[C@H](C)O3)c1C(F)(F)F [Compound 203, (5S,5aS,6S,9R)-1-fluoro-2-(4-fluoro-3-methyl-2-(trifluoromethyl)phenyl)-12-(((2R,7aS)-2-fluorotetrahydro-1H-pyrrolizin-7a(5H)-yl)methoxy)-5-methyl-5a,6,7,8,9,10-hexahydro-5H-4-oxa-3,10a,11,13,14-pentaaza-6,9-methanonaphtho[1,8-ab]heptalene]",20000,520
"Cc1c(F)c(N)cc(-c2nc3c4c(nc(OC[C@@H]5CCC6CC(F)(F)CCN65)nc4c2F)N2C[C@H]4CC[C@H](N4)[C@H]2[C@H](C)O3)c1C(F)(F)F (single isomer, unassigned) [119 (isomer 2)]",1700,7.95
"C[C@@H]1Oc2nc(-c3cccc4ccc(N)nc34)c(F)c3nc(OC[C@@]45CCCN4C[C@H](F)C5)nc(c23)N2C[C@H]3CC[C@H](N3)[C@@H]12 [Compound 114, 8-((5S,5aS,6S,9R)-1-Fluoro-12-(((2R,7aS)-2-fluorotetrahydro-1H-pyrrolizin-7a(5H)-yl)methoxy)-5-methyl-5a,6,7,8,9,10-hexahydro-5H-4-oxa-3,10a,11,13,14-pentaaza-6,9-methanonaphtho[1,8-ab]heptalen-2-yl)quinolin-2-amine]",20000,2000
"Cc1cc(N)c(F)c(-c2nc3c4c(nc(OC[C@@]56CCCN5C[C@H](F)C6)nc4c2F)N2C[C@H]4CC[C@H](N4)[C@H]2[C@H](C)O3)c1I [Compound 108, 2-Fluoro-3-((5S,5aS,6S,9R)-1-fluoro-12-(((2R,7aS)-2-fluorotetrahydro-1H-pyrrolizin-7a(5H)-yl)methoxy)-5-methyl-5a,6,7,8,9,10-hexahydro-5H-4-oxa-3,10a,11,13,14-pentaaza-6,9-methanonaphtho[1,8-ab]heptalen-2-yl)-4-iodo-5-methylaniline]",772,2.85
"Cc1c(F)c(N)cc(-c2nc3c4c(nc(OCC56COCC5CCN6C)nc4c2F)N2CC4CCC(N4)C2C(C)O3)c1C(F)(F)F (single isomer, unassigned) [134 (isomer 2)]",1940,7.45
"Cc1c(F)c(N)cc(-c2nc3c4c(nc(OC[C@@]56CCC(C)N5C[C@H](F)C6)nc4c2F)N2C[C@H]4CC[C@H](N4)[C@H]2[C@H](C)O3)c1C(F)(F)F (stereo partly drawn) [Compound 122, 2-fluoro-5-((5S,5aS,6S,9R)-1-fluoro-12-(((2R,7aS)-2-fluoro-5-methyltetrahydro-1H-pyrrolizin-7a(5H)-yl)methoxy)-5-methyl-5a,6,7,8,9,10-hexahydro-5H-4-oxa-3,10a,11,13,14-pentaaza-6,9-methanonaphtho[1,8-ab]heptalen-2-yl)-3-methyl-4-(trifluoromethyl)aniline]",487,1.84
"Cc1c(F)c(N)c(F)c(-c2nc3c4c(nc(OC[C@@]56CCCN5C[C@H](F)C6)nc4c2F)N2C[C@H]4CC[C@H](N4)[C@H]2[C@H](C)O3)c1I [Compound 204, 2,6-Difluoro-3-((5S,5aS,6S,9R)-1-fluoro-12-(((2R,7aS)-2-fluorotetrahydro-1H-pyrrolizin-7a(5H)-yl)methoxy)-5-methyl-5a,6,7,8,9,10-hexahydro-5H-4-oxa-3,10a,11,13,14-pentaaza-6,9-methanonaphtho[1,8-ab]heptalen-2-yl)-4-iodo-5-methylaniline]",1420,18.9
"Cc1c(F)c(N)cc(-c2nc3c4c(nc(OCCCN5C[C@H]6C[C@@H]5CO6)nc4c2F)N2C[C@H]4CC[C@H](N4)[C@H]2[C@H](C)O3)c1C(F)(F)F [Compound 163, 5-((5S,5aS,6S,9R)-12-(3-((1R,4R)-2-Oxa-5-azabicyclo[2.2.1]heptan-5-yl)propoxy)-1-fluoro-5-methyl-5a,6,7,8,9,10-hexahydro-5H-4-oxa-3,10a,11,13,14-pentaaza-6,9-methanonaphtho[1,8-ab]heptalen-2-yl)-2-fluoro-3-methyl-4-(trifluoromethyl)aniline]",1140,10.2
"Cc1nc(N)cc(-c2nc3c4c(nc(OCC5(CN6CC7COCC7C6)CC5)nc4c2F)N2C[C@H]4CC[C@H](N4)[C@H]2[C@H](C)O3)c1C(F)(F)F (stereo partly drawn) [Compound 205, 4-((5S,5aS,6S,9R)-1-Fluoro-5-methyl-12-((1-((tetrahydro-1H-furo[3,4-c]pyrrol-5(3H)-yl)methyl)cyclopropyl)methoxy)-5a,6,7,8,9,10-hexahydro-5H-4-oxa-3,10a,11,13,14-pentaaza-6,9-methanonaphtho[1,8-ab]heptalen-2-yl)-6-methyl-5-(trifluoromethyl)pyridin-2-amine]",1130,3.35
"Cc1nc(N)cc(-c2nc3c4c(nc(OC[C@@]56CCN5CC(F)(F)C6)nc4c2F)N2C[C@H]4CC[C@H](N4)[C@H]2[C@H](C(F)(F)F)O3)c1C(F)(F)F (single isomer, unassigned) [252 (isomer 1)]",7710,20.4
"Cc1cc(N)c(F)c(-c2nc3c4c(nc(OC[C@@H]5CC[C@H]6COCCN65)nc4c2F)N2C[C@H]4CC[C@H](N4)[C@H]2[C@H](C)O3)c1C1CC1 [Compound 98, 4-Cyclopropyl-2-fluoro-3-((5S,5aS,6S,9R)-1-fluoro-12-(((6S,8aS)-hexahydro-1H-pyrrolo[2,1-c][1,4]oxazin-6-yl)methoxy)-5-methyl-5a,6,7,8,9,10-hexahydro-5H-4-oxa-3,10a,11,13,14-pentaaza-6,9-methanonaphtho[1,8-ab]heptalen-2-yl)-5-methylaniline]",2750,26.2
"Cc1c(F)c(N)cc(-c2nc3c4c(nc(OC[C@@]5(CCF)CCCN5C)nc4c2F)N2C[C@H]4CC[C@H](N4)[C@H]2[C@H](C)O3)c1C(F)(F)F (single isomer, unassigned) [127 (isomer 1)]",6080,50.1
Cc1c(F)c(N)cc(-c2nc3c4c(nc(OC[C@H](F)CN5CC6(COC6)C5)nc4c2F)N2C[C@H]4CC[C@H](N4)[C@H]2[C@H](C)O3)c1C(F)(F)F [Compound 144],7510,21.2
